Fold induction and HRE expression data for 22 compounds are collected here from patent EP4810508A1, “ARABINOSE DERIVATIVE COMPOUND, AND COMPOSITION COMPRISING SAME FOR PREVENTING OR TREATING DEGENERATIVE BRAIN DISEASES” (Digmbio. Inc., priority 2023, dated 2025).

Structures are written as SMILES. Like-named read-outs stand apart in the source and are kept apart here.

In this test the test system is HRE/Luc/HEK293 cells. Briefly: HRE (Hypoxia Response Element) luciferase assay. To be noted: for fold induction at 10 µM / fold induction at 100 µM: Homo sapiens. In kind it is cell-based, human. On the procedure: • (a) HRE assay: Confirmation of increased in HRE expression levels by the test substance relative to the vehicle in HRE/Luc/HEK293 cells • * Less than a twofold increase at 100 µM, • ** More than a twofold increase at 100 µM, • *** More than a twofold increase at 10 µM, • **** More than a twofold increase at 1 µM, • Not performed.
It has been reported that in the brains of AD patients, blood supply is mostly insufficient, resulting in oxygen levels being up to 50% lower than those of normal individuals, leading to increased oxidative stress (ROS) and neuroinflammation. It has also been studied that when the HIF-1α (hypoxia inducible factor-1) factor binds to the HRE (hypoxia response element), it increases VEGF (vascular endothelial growth factor), which promotes the formation of new blood vessels, thereby increasing oxygen levels in the brain and helping to inhibit nerve cell damage.
A reporter gene containing luciferase, capable of verifying the level of HRE expression, was inserted into HEK-293 human embryonic kidney cells, and HRE/Luc/HEK293 cells were constructed by inserting a plasmid (HRE/Luc) with luciferase attached downstream of the HRE promoter that binds to HIF-1α using lipofectamine (Invitrogen).
To perform HRE luciferase analysis, HRE/Luc/HEK293 cells were seeded in 96-well culture plates at a cell density of 4 x 10^4 per well in minimal essential medium (MEM) containing 10% fetal bovine serum. After one day, the cell medium was removed and replaced with medium mixed with various concentrations of example compounds. Six hours after compound pretreatment, HRE/Luc/HEK293 cells were cultured under hypoxic conditions (O2 0.1%) for 18 hours. Subsequently, the cells were washed with phosphate buffer, lysed with lysis buffer, and then the luciferase reagent (Promega) for luciferase analysis was added. Afterward, changes in HRE expression levels associated with HIF-1 signaling were evaluated by measuring luminescence using an Infinite200 (Tecan).

Setting [1] is: HEK293, 18 h, Table 2 (Examples 37-74, 52), read-out: HKt-increasing 10uM.
The mark [2] stands for this setting: HEK293, 18 h, Table 2 (Examples 37-74, 52), read-out: HKt-increasing 100uM.
[3] abbreviates: HEK293, 18 h, Table 2 (Examples 75-109, 114), read-out: HRE-inceasing 10uM.
Setting [4] is: HEK293, 18 h, Table 2 (Examples 75-109, 114), read-out: HRE-inceasing 100uM.
Setting [5] is: HEK293, fold increase of HRE expression, hypoxic conditions (O2 0.1%) 18 hours, Table 2, read-out: HRE-increasing 10uM.
Setting [6] is: HEK293, fold increase of HRE expression, hypoxic conditions (O2 0.1%) 18 hours, Table 2, read-out: HRE-increasing 100uM.

As to `CO[C@H]1[C@@H](Oc2ccc(Oc3ccc(C(C)C)cc3)cc2)OC[C@H](O)[C@@H]1O` [Example 62, (3S,4S,5R,6R)-6-(4-(4-isopropylphenoxy)phenoxy)-5-methoxytetrahydro-2H-pyran 3,4-diol], the fold induction at 10 µM under setting [1] amounted to 2.3. Under setting [2], the fold induction at 100 µM was found to be 2.2.

On to `CC(C)c1ccc(Oc2ccc(O[C@H]3OC[C@@H](F)[C@H](O)[C@H]3O)cc2)cc1` [Example 64, (2R,3R,4R,5R)-5-fluoro-2-(4-(4-isopropylphenoxy)phenoxy)tetrahydro-2H-pyran-3,4-diol], for which the fold induction at 10 µM under setting [1] was 2.4. For the same compound, the fold induction at 100 µM under setting [2] stood at 2.3.

In the case of `O[C@@H]1[C@@H](O)[C@H](Oc2ccc(CN3CCOCC3)cc2)OC[C@@H]1O` [Example 76, (2S,3R,4S,5S)-2-(4-(morpholinomethyl)phenoxy)tetrahydro-2H-pyran-3,4,5-triol], under setting [3], the fold induction at 10 µM is under 1. In addition, the fold induction at 100 µM under setting [4] amounted to 1.

`COc1ccc(Cc2ccc(O[C@H]3OC[C@H](O)[C@H](O)[C@H]3O)cc2)cc1OC` [Example 17, (2R,3R,4S,5S)-2-(4-(3,4-dimethoxybenzyl)phenoxy)tetrahydro-2H-pyran-3,4-triol]: under setting [5], the fold induction at 10 µM turned out to be 1.2. For the same compound, the fold induction at 100 µM under setting [6] is 1.5.

Consider `CC(C)c1ccc(Cc2ccc(O[C@H]3OC[C@H](O)[C@H](O)[C@H]3O)cc2Cl)cc1` [Example 40, (2R,3R,4S,5S)-2-(3-chloro-4-(4-isopropylbenzyl)phenoxy)tetrahydro-2H-pyran-3,4,5-triol], for which, under setting [1], the fold induction at 10 µM came out at 2.6. In addition, under setting [2], the fold induction at 100 µM stood at 3.1.

For the compound `COc1ccc(Cc2ccc(O[C@H]3OC[C@H](O)[C@H](O)[C@H]3OC(=O)CCCCCCCCCN)cc2)cc1` [Example 79, (2R,3R,4S,5S)-4,5-dihydroxy-2-(4-(4-methoxybenzyl)phenoxy)tetrahydro-2H-pyran-3-yl 10-aminodecanoate], under setting [3], the fold induction at 10 µM was 1. Further, the fold induction at 100 µM under setting [4] worked out at 1.7.

As to `O[C@@H]1[C@@H](O)[C@@H](Oc2ccc(Cc3cc(C(F)(F)F)cc(C(F)(F)F)c3)cc2)OC[C@@H]1O` [Example 16, (2R,3R,4S,5S)-2-(4-(3,5-bis(trifluoromethyl)benzyl)phenoxy) tetrahydro-2H-pyran-3,4,5-triol], under setting [5], the fold induction at 10 µM was 1. Besides, under setting [6], the fold induction at 100 µM was under 1.

For `Cc1ccc2oc(-c3ccc(O[C@H]4OC[C@H](O)[C@H](O)[C@H]4O)c(Cl)c3)nc2c1` [Example 99, (2R,3R,4S,5S)-2-(2-chloro-4-(5-methylbenzo [d]oxazol-2-yl)phenoxy)tetrahydro-2H-pyran-3,4,5-triol], under setting [3], the fold induction at 10 µM was 2.8. Further, the fold induction at 100 µM under setting [4] is 3.6.

On to `COc1ccc(Cc2ccc(O[C@H]3OC[C@H](O)[C@H](O)[C@H]3O)cc2Cl)cc1` [Example 38, (2R,3R,4S,5S)-2-(3-chloro-4-(4-methoxybenzyl)phenoxy)tetrahydro-2H-pyran-3,4,5-triol], for which, under setting [1], the fold induction at 10 µM turned out to be 1.3. Besides, under setting [2], the fold induction at 100 µM was 2.2.

Consider `CC(C)c1ccc(Oc2ccc(O[C@H]3OC[C@H](O)[C@H](O)[C@H]3F)cc2)cc1` [Example 63, (3S,4S,5R,6R)-5-fluoro-6-(4-(4-isopropylphenoxy)phenoxy)tetrahydro-2H-pyran-3,4-diol], for which the fold induction at 10 µM under setting [1] was determined as 2.4. Moreover, the fold induction at 100 µM under setting [2] was found to be 2.3.

As to `COc1ccc(Cc2ccc(O[C@H]3OC[C@H](O)[C@H](O)[C@H]3O)c(Cl)c2)cc1` [Example 51, (2R,3R,4S,5S)-2-(2-chloro-4-(4-methoxybenzyl)phenoxy)tetrahydro-2H-pyran-3,4,5-triol], the fold induction at 10 µM under setting [1] came to 1.3. In addition, the fold induction at 100 µM under setting [2] is 2.9.

Regarding `COc1ccc(Cc2ccc(O[C@H]3OC[C@H](O)[C@H](O)[C@H]3N)cc2)cc1` [Example 78], the fold induction at 10 µM under setting [3] worked out at 12. Further, the fold induction at 100 µM under setting [4] came to 2.4.

Turning to `CO[C@@H]1[C@@H](O)[C@@H](Oc2ccc(Oc3ccc(C(C)C)cc3)cc2)OC[C@@H]1O` [Example 60, (2R,3R,4S,5S)-2-(4-(4-isopropylphenoxy)phenoxy)-4-methoxytetrahydro-2H-pyran-3,5-diol], the fold induction at 10 µM under setting [1] amounted to 2.3. In addition, under setting [2], the fold induction at 100 µM turned out to be 1.6.

`CC(C)c1ccc2nc(-c3ccc(O[C@@H]4OC[C@H](O)[C@H](O)[C@H]4O)cc3)oc2c1` [Example 89, (2S,3R,4S,5S)-2-(4-(6-isopropylbenzo[d]oxazol-2-yl)phenoxy)tetrahydro-2H-pyran-3,4,5-triol]: under setting [3], the fold induction at 10 µM stood at 2.8. Also, the fold induction at 100 µM under setting [4] was under 1.

Consider `O[C@@H]1[C@@H](O)[C@@H](Oc2ccc(Cc3ccc4ccccc4c3)cc2)OC[C@@H]1O` [Example 19, (2R,3R,4S,5S)-2-(4-(naphthalen-2-ylmethyl)phenoxy) tetrahydro-2H-pyran-3,4,5-triol], for which the fold induction at 10 µM under setting [5] was determined as 1.3. Also, under setting [6], the fold induction at 100 µM was determined as 1.8.

As to `COc1ccc(Cc2ccc(O[C@H]3OC[C@H](O)[C@H](O)[C@H]3O)c(F)c2)cc1` [Example 46, (2R,3R,4S,5S)-2-(2-fluoro-4-(4-methoxybenzyl)phenoxy)tetrahydro-2H-pyran-3,4,5-triol], the fold induction at 10 µM under setting [1] was 1.1. Further, under setting [2], the fold induction at 100 µM stood at 1.8.

As to `CC(C)c1ccc(Cc2ccc(S[C@@H]3OC[C@H](O)[C@H](O)[C@H]3O)cc2)cc1` [Example 28, (2S,3R,4S,5S)-2-((4-(4-isopropylbenzyl)phenyl)thio) tetrahydro-2H-pyran-3,4,5-triol], under setting [5], the fold induction at 10 µM worked out at 1.8.

Turning to `CC(C)c1ccc2nc(-c3ccc(O[C@H]4OC[C@H](O)[C@H](O)[C@H]4O)cc3)oc2c1` [Example 88, (2R,3R,4S,5S)-2-(4-(6-isopropylbenzo[d]oxazol-2-yl)phenoxy)tetrahydro-2H-pyran-3,4,5-triol], the fold induction at 10 µM under setting [3] was found to be 1.7. Moreover, the fold induction at 100 µM under setting [4] worked out at 3.1.

`N#Cc1ccc(C(=O)c2ccc(O[C@@H]3OC[C@H](O)[C@H](O)[C@H]3O)cc2)cc1` [Example 72, 4-(4-(((2S,3R,4S,5S)-3,4,5-trihydroxytetrahydro-2H-pyran-2-yl)oxy)benzoyl)benzonitrile]: the fold induction at 10 µM under setting [1] was 1. Also, the fold induction at 100 µM under setting [2] came to 1.3.

As for `COc1ccc(Cc2ccc(O[C@H]3OC[C@H](O)[C@H](O)[C@H]3N=[N+]=[N-])cc2)cc1` [Example 77, (3S,4R,5R,6R)-5-azido-6-(4-(4-methoxybenzyl)phenoxy)tetrahydro-2H-pyran-3,4-diol], the fold induction at 10 µM under setting [3] came to 1. Moreover, under setting [4], the fold induction at 100 µM was 1.3.

Take `CC(C)c1ccc(Oc2ccc(O[C@H]3OC[C@H](O)[C@H](O)[C@H]3O)c(Cl)c2)cc1` [Example 57, (2R,3R,4S,5S)-2-(2-chloro-4-(4-isopropylphenoxy)phenoxy)tetrahydro-2H-pyran-3,4,5-triol]: under setting [1], the fold induction at 10 µM is 3.2. Moreover, the fold induction at 100 µM under setting [2] was 2.8. For the same compound, the HRE expression entry (low concentration of 1 µM) is “more than threefold”.

In the case of `O[C@@H]1[C@@H](O)[C@@H](O)CO[C@@H]1Sc1ccc(Cc2ccccc2)cc1` [Example 26, (2R,3R,4S,5S)-2-((4-benzylphenyl)thio)tetrahydro-2H-pyran-3,4,5-thiol], under setting [5], the fold induction at 10 µM is 2.1. Besides, under setting [6], the fold induction at 100 µM came out at 2.5.
